The subject of assay [1] is Candida albicans A-26. The assay can be described thus: Agar plate disc diffusion test, MIC per disc. In kind it is cell-based. Conditions: 0.1M sodium borate, pH 7.5, 24 hours, 30° C. The procedure:
(§1) Tables 10 and 11 give the results of the testing in vitro of the compounds of Examples 3 and 4 by agar-plate disc-diffusion methods. In Table 10 activity is measured by the size (diameter in mm) of the observed zone of inhibition of the microorganism produced by the test compound. In Table 11, activity is measured by the minimal inhibitory concentration (MIC) of the substance (μg/disc) required to inhibit growth of the test organism. Table 12 gives the results of the testing in vitro of the p-(n-octyloxy)benzoyl derivative of A30912A nucleus [Formula III, R^1 is p-(n-octyloxy)benzoyl] against five strains of Candida albicans by the agar dilution method. In Table 12 activity is measured by the minimal inhibitory concentration (MIC) of the substance (μg/ml) required to inhibit the test organism.
(§2) ^(a) Compounds were suspended in 0.1M sodium borate solution, pH 7.5.
(§3) The compounds were tested at 20 μg/disc at top level and at twofold
(§4) dilutions until end points were reached. Incubation: 24 hours; 30°
A general note: A growth-free zone around the sample is the usual read-out of agar diffusion tests.

In assay [2] the test system is Trychophyton mentagrophyes #6. The assay can be described thus: Agar plate disc diffusion test, MIC per disc. In kind it is cell-based, Trichophyton mentagrophytes. Conditions: 0.1M sodium borate, pH 7.5, 24 hours, 30° C., * measurable zones with regrowth of organism around disc. The protocol: as §1, §2, §3, §4
*Measurable zones of inhibition with regrowth of organism around disc.

Starred links: 1 amine or outer side, 2 acyl side, 3 side chain; linkers in the order of their positions; H or OH if unused. Positions of bridges follow the written chain, without caps; N, C: chain ends. Non-standard residues stand in square brackets, D forms with d. Residues, ends and D or L forms follow the SMILES beside them. *: point of attachment. Orn(4R-OH,5R-OH) = O=C([C@H](C[C@@H](O)[C@@H](O)N[*:3])N[*:1])[*:2]; hTyr(3S-OH,4S-OH) = N[C@H](C(=O)O)[C@H](O)[C@@H](O)c1ccc(O)cc1; Pro(3S-OH,4S-Me) = C[C@H]1CN[C@H](C(=O)O)[C@H]1O; X2 = CCCCCCCCCCCCCCS(=O)(=O)c1ccc(C(=O)*)cc1; Benzoyl(4-octyl) = CCCCCCCCc1ccc(C(=O)*)cc1; X5 = CCCCCCCCCCCCS(=O)(=O)c1ccc(C(=O)*)cc1; X22 = CCCCCCCCCCCCOc1ccc(CCC(=O)*)cc1; X18 = CCCCCCCCCCCCOc1ccc(CC(=O)*)cc1; X10 = CCCCCCCCCCCCOc1cccc(C(=O)*)c1; X16 = CCCCCCCCOc1ccc(C=CC(=O)*)cc1; X11 = CCCCCCCCOc1ccc(OCC(=O)*)cc1; X21 = CCCCCCCCOc1ccc(CCC(=O)*)cc1; Hyp = O=C(O)[C@@H]1C[C@@H](O)CN1; X15 = CCCCCCCCOc1cccc(CC(=O)*)c1; X19 = CCCCCCOc1ccc(C=CC(=O)*)cc1; X9 = CCCCCCCCCCOc1cccc(C(=O)*)c1; X12 = CCCCCCOc1ccc(CCC(=O)*)cc1; X13 = CCCCCCCCOc1cccc(C(=O)*)c1; X14 = CCCCCCOc1ccc(C(=O)*)cc1; X17 = CCCCOc1ccc(CCC(=O)*)cc1

On to `CCCCCCCCCCCCS(=O)(=O)c1ccc(C(=O)N[C@H]2C[C@@H](O)[C@@H](O)NC(=O)[C@@H]3[C@@H](O)[C@@H](C)CN3C(=O)[C@H]([C@@H](C)O)NC(=O)[C@H]([C@H](O)[C@@H](O)c3ccc(O)cc3)NC(=O)[C@@H]3C[C@@H](O)CN3C(=O)[C@H]([C@@H](C)O)NC2=O)cc1` [drawing 125] (X5-[Orn(4R-OH,5R-OH)]T[Hyp][hTyr(3S-OH,4S-OH)]T[Pro(3S-OH,4S-Me)]; lactam 1-C), for which the MIC in assay [1] was 0.625 μg/disc; in assay [2], 0.078 μg/disc.
For `CCCCCCCCCCCCCCS(=O)(=O)c1ccc(C(=O)N[C@H]2C[C@@H](O)[C@@H](O)NC(=O)[C@@H]3[C@@H](O)[C@@H](C)CN3C(=O)[C@H]([C@@H](C)O)NC(=O)[C@H]([C@H](O)[C@@H](O)c3ccc(O)cc3)NC(=O)[C@@H]3C[C@@H](O)CN3C(=O)[C@H]([C@@H](C)O)NC2=O)cc1` [drawing 126] (X2-[Orn(4R-OH,5R-OH)]T[Hyp][hTyr(3S-OH,4S-OH)]T[Pro(3S-OH,4S-Me)]; lactam 1-C), in that order: 0.625 μg/disc and 0.039 μg/disc.
For `CCCCCCCCOc1cccc(C(=O)N[C@H]2C[C@@H](O)[C@@H](O)NC(=O)[C@@H]3[C@@H](O)[C@@H](C)CN3C(=O)[C@H]([C@@H](C)O)NC(=O)[C@H]([C@H](O)[C@@H](O)c3ccc(O)cc3)NC(=O)[C@@H]3C[C@@H](O)CN3C(=O)[C@H]([C@@H](C)O)NC2=O)c1` [drawing 127] (X13-[Orn(4R-OH,5R-OH)]T[Hyp][hTyr(3S-OH,4S-OH)]T[Pro(3S-OH,4S-Me)]; lactam 1-C), in that order: 10 μg/disc and more than 40 μg/disc.
Take `CCCCCCCCCCOc1cccc(C(=O)N[C@H]2C[C@@H](O)[C@@H](O)NC(=O)[C@@H]3[C@@H](O)[C@@H](C)CN3C(=O)[C@H]([C@@H](C)O)NC(=O)[C@H]([C@H](O)[C@@H](O)c3ccc(O)cc3)NC(=O)[C@@H]3C[C@@H](O)CN3C(=O)[C@H]([C@@H](C)O)NC2=O)c1` [drawing 128] (X9-[Orn(4R-OH,5R-OH)]T[Hyp][hTyr(3S-OH,4S-OH)]T[Pro(3S-OH,4S-Me)]; lactam 1-C): the results for the MIC in assay [1] and in assay [2] were 2.5 μg/disc and more than 40 μg/disc, respectively.
Regarding `CCCCCCCCCCCCOc1cccc(C(=O)N[C@H]2C[C@@H](O)[C@@H](O)NC(=O)[C@@H]3[C@@H](O)[C@@H](C)CN3C(=O)[C@H]([C@@H](C)O)NC(=O)[C@H]([C@H](O)[C@@H](O)c3ccc(O)cc3)NC(=O)[C@@H]3C[C@@H](O)CN3C(=O)[C@H]([C@@H](C)O)NC2=O)c1` [drawing 129] (X10-[Orn(4R-OH,5R-OH)]T[Hyp][hTyr(3S-OH,4S-OH)]T[Pro(3S-OH,4S-Me)]; lactam 1-C), the MIC in assay [1] is 2.5 μg/disc; in assay [2], more than 40 μg/disc.
The corresponding values for `CCCCCCOc1ccc(C(=O)N[C@H]2C[C@@H](O)[C@@H](O)NC(=O)[C@@H]3[C@@H](O)[C@@H](C)CN3C(=O)[C@H]([C@@H](C)O)NC(=O)[C@H]([C@H](O)[C@@H](O)c3ccc(O)cc3)NC(=O)[C@@H]3C[C@@H](O)CN3C(=O)[C@H]([C@@H](C)O)NC2=O)cc1` [drawing 131] (X14-[Orn(4R-OH,5R-OH)]T[Hyp][hTyr(3S-OH,4S-OH)]T[Pro(3S-OH,4S-Me)]; lactam 1-C) are 2.5 μg/disc and 0.312 μg/disc.
For `CCCCCCCCc1ccc(C(=O)N[C@H]2C[C@@H](O)[C@@H](O)NC(=O)[C@@H]3[C@@H](O)[C@@H](C)CN3C(=O)[C@H]([C@@H](C)O)NC(=O)[C@H]([C@H](O)[C@@H](O)c3ccc(O)cc3)NC(=O)[C@@H]3C[C@@H](O)CN3C(=O)[C@H]([C@@H](C)O)NC2=O)cc1` [drawing 133] ({Benzoyl(4-octyl)}-[Orn(4R-OH,5R-OH)]T[Hyp][hTyr(3S-OH,4S-OH)]T[Pro(3S-OH,4S-Me)]; lactam 1-C), in that order: 0.625 μg/disc and 0.156 μg/disc.
For the compound `CCCCOc1ccc(CCC(=O)N[C@H]2C[C@@H](O)[C@@H](O)NC(=O)[C@@H]3[C@@H](O)[C@@H](C)CN3C(=O)[C@H]([C@@H](C)O)NC(=O)[C@H]([C@H](O)[C@@H](O)c3ccc(O)cc3)NC(=O)[C@@H]3C[C@@H](O)CN3C(=O)[C@H]([C@@H](C)O)NC2=O)cc1` [drawing 134] (X17-[Orn(4R-OH,5R-OH)]T[Hyp][hTyr(3S-OH,4S-OH)]T[Pro(3S-OH,4S-Me)]; lactam 1-C), the MIC in assay [1] is given as 20 μg/disc; in assay [2], 1.25 μg/disc.
Turning to `CCCCCCOc1ccc(CCC(=O)N[C@H]2C[C@@H](O)[C@@H](O)NC(=O)[C@@H]3[C@@H](O)[C@@H](C)CN3C(=O)[C@H]([C@@H](C)O)NC(=O)[C@H]([C@H](O)[C@@H](O)c3ccc(O)cc3)NC(=O)[C@@H]3C[C@@H](O)CN3C(=O)[C@H]([C@@H](C)O)NC2=O)cc1` [drawing 135] (X12-[Orn(4R-OH,5R-OH)]T[Hyp][hTyr(3S-OH,4S-OH)]T[Pro(3S-OH,4S-Me)]; lactam 1-C), the MIC in assay [1] is on record as 0.625 μg/disc; in assay [2] it was 0.156 μg/disc.
The corresponding values for `CCCCCCCCOc1ccc(CCC(=O)N[C@H]2C[C@@H](O)[C@@H](O)NC(=O)[C@@H]3[C@@H](O)[C@@H](C)CN3C(=O)[C@H]([C@@H](C)O)NC(=O)[C@H]([C@H](O)[C@@H](O)c3ccc(O)cc3)NC(=O)[C@@H]3C[C@@H](O)CN3C(=O)[C@H]([C@@H](C)O)NC2=O)cc1` [drawing 136] (X21-[Orn(4R-OH,5R-OH)]T[Hyp][hTyr(3S-OH,4S-OH)]T[Pro(3S-OH,4S-Me)]; lactam 1-C) are 0.078 μg/disc and 0.156 μg/disc.
For `CCCCCCCCCCCCOc1ccc(CCC(=O)N[C@H]2C[C@@H](O)[C@@H](O)NC(=O)[C@@H]3[C@@H](O)[C@@H](C)CN3C(=O)[C@H]([C@@H](C)O)NC(=O)[C@H]([C@H](O)[C@@H](O)c3ccc(O)cc3)NC(=O)[C@@H]3C[C@@H](O)CN3C(=O)[C@H]([C@@H](C)O)NC2=O)cc1` [drawing 137] (X22-[Orn(4R-OH,5R-OH)]T[Hyp][hTyr(3S-OH,4S-OH)]T[Pro(3S-OH,4S-Me)]; lactam 1-C), in that order: 0.312 μg/disc and 0.156 μg/disc.
In the case of `CCCCCCOc1ccc(C=CC(=O)N[C@H]2C[C@@H](O)[C@@H](O)NC(=O)[C@@H]3[C@@H](O)[C@@H](C)CN3C(=O)[C@H]([C@@H](C)O)NC(=O)[C@H]([C@H](O)[C@@H](O)c3ccc(O)cc3)NC(=O)[C@@H]3C[C@@H](O)CN3C(=O)[C@H]([C@@H](C)O)NC2=O)cc1` [drawing 139] (X19-[Orn(4R-OH,5R-OH)]T[Hyp][hTyr(3S-OH,4S-OH)]T[Pro(3S-OH,4S-Me)]; lactam 1-C), the MIC in assay [1] came out at 1.25 μg/disc; in assay [2], 0.156 μg/disc.
The corresponding values for `CCCCCCCCOc1ccc(C=CC(=O)N[C@H]2C[C@@H](O)[C@@H](O)NC(=O)[C@@H]3[C@@H](O)[C@@H](C)CN3C(=O)[C@H]([C@@H](C)O)NC(=O)[C@H]([C@H](O)[C@@H](O)c3ccc(O)cc3)NC(=O)[C@@H]3C[C@@H](O)CN3C(=O)[C@H]([C@@H](C)O)NC2=O)cc1` [drawing 140] (X16-[Orn(4R-OH,5R-OH)]T[Hyp][hTyr(3S-OH,4S-OH)]T[Pro(3S-OH,4S-Me)]; lactam 1-C) are 0.156 μg/disc and 0.156 μg/disc.
For `CCCCCCCCOc1cccc(CC(=O)N[C@H]2C[C@@H](O)[C@@H](O)NC(=O)[C@@H]3[C@@H](O)[C@@H](C)CN3C(=O)[C@H]([C@@H](C)O)NC(=O)[C@H]([C@H](O)[C@@H](O)c3ccc(O)cc3)NC(=O)[C@@H]3C[C@@H](O)CN3C(=O)[C@H]([C@@H](C)O)NC2=O)c1` [drawing 141] (X15-[Orn(4R-OH,5R-OH)]T[Hyp][hTyr(3S-OH,4S-OH)]T[Pro(3S-OH,4S-Me)]; lactam 1-C), in that order: 5 μg/disc and 80 μg/disc.
For `CCCCCCCCCCCCOc1ccc(CC(=O)N[C@H]2C[C@@H](O)[C@@H](O)NC(=O)[C@@H]3[C@@H](O)[C@@H](C)CN3C(=O)[C@H]([C@@H](C)O)NC(=O)[C@H]([C@H](O)[C@@H](O)c3ccc(O)cc3)NC(=O)[C@@H]3C[C@@H](O)CN3C(=O)[C@H]([C@@H](C)O)NC2=O)cc1` [drawing 142] (X18-[Orn(4R-OH,5R-OH)]T[Hyp][hTyr(3S-OH,4S-OH)]T[Pro(3S-OH,4S-Me)]; lactam 1-C), in that order: 0.312 μg/disc and 0.625 μg/disc.
In the case of `CCCCCCCCOc1ccc(OCC(=O)N[C@H]2C[C@@H](O)[C@@H](O)NC(=O)[C@@H]3[C@@H](O)[C@@H](C)CN3C(=O)[C@H]([C@@H](C)O)NC(=O)[C@H]([C@H](O)[C@@H](O)c3ccc(O)cc3)NC(=O)[C@@H]3C[C@@H](O)CN3C(=O)[C@H]([C@@H](C)O)NC2=O)cc1` [drawing 145] (X11-[Orn(4R-OH,5R-OH)]T[Hyp][hTyr(3S-OH,4S-OH)]T[Pro(3S-OH,4S-Me)]; lactam 1-C), the MIC in assay [1] was determined as 0.312 μg/disc; in assay [2], 80 μg/disc.

The values above are taken from patent publication US4293489A, “Derivatives of A-30912A nucleus” (Eli Lilly and Company, priority 1980, dated 1981).
